Cn1nccc1O
solubility (mole fraction)
Settings | 278.15 K | 283.15 K | 288.15 K | 293.15 K | 298.15 K | 303.15 K | 308.15 K | 313.15 K | 318.15 K
in ethanol | 0.0822 | 0.0959 | 0.112 | 0.129 | 0.149 | 0.171 | 0.194 | 0.216 | 0.247
in ethyl acetate | 0.000394 | 0.000668 | 0.00119 | 0.00222 | 0.00348 | 0.00603 | 0.00922 | 0.0154 | 0.0245
in isobutanol | 0.1 | 0.118 | 0.138 | 0.161 | 0.183 | 0.208 | 0.242 | 0.272 | 0.308
in isopropanol | 0.079 | 0.0911 | 0.106 | 0.122 | 0.141 | 0.162 | 0.186 | 0.209 | 0.24
in methanol | 0.0905 | 0.107 | 0.126 | 0.146 | 0.172 | 0.201 | 0.234 | 0.266 | 0.308
in methyl acetate | 0.00741 | 0.00888 | 0.0109 | 0.0128 | 0.0156 | 0.0187 | 0.0217 | 0.0258 | 0.0312
in n-butanol | 0.0789 | 0.09 | 0.105 | 0.121 | 0.139 | 0.159 | 0.177 | 0.2 | 0.231
in n-butyl acetate | 0.000681 | 0.00102 | 0.00149 | 0.00216 | 0.00302 | 0.00433 | 0.00601 | 0.00846 | 0.0125
in n-pentyl acetate | 0.00428 | 0.00553 | 0.00705 | 0.0087 | 0.011 | 0.0138 | 0.0169 | 0.0201 | 0.0261
in n-propanol | 0.0801 | 0.0922 | 0.109 | 0.127 | 0.143 | 0.165 | 0.185 | 0.211 | 0.245
in n-propyl acetate | 0.000277 | 0.0005 | 0.000774 | 0.00138 | 0.00218 | 0.0032 | 0.00511 | 0.00843 | 0.0124
in sec-butanol | 0.0889 | 0.101 | 0.117 | 0.135 | 0.154 | 0.173 | 0.195 | 0.219 | 0.251
